Laboratory results as given in ChEMBL document CHEMBL1909046, “DrugMatrix in vitro pharmacology data”.

Tests used:
[1] = DRUGMATRIX: GABAA, Flunitrazepam, Central radioligand binding (ligand: [3H] Flunitrazepam); type: cell membranes, Rattus norvegicus, Wistar, Brain, Membrane; conditions: Not Active = under 50% inhibition at 10 µM
[2] = biological target: T1, C-X-C chemokine receptor type 1 (Homo sapiens, UniProt P25024); also: in other assays of this panel Not Active means under 50% inhibition at 10 µM
T1 sequence (P25024 whole entry): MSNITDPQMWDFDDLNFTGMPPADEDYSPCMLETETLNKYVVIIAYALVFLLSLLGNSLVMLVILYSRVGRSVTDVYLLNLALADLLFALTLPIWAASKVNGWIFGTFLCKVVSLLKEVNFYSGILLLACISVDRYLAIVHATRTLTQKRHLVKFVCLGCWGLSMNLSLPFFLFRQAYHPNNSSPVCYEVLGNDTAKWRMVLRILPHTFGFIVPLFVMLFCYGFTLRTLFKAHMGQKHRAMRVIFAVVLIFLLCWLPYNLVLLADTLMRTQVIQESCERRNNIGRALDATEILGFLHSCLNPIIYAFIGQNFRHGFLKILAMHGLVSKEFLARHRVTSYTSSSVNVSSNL

[3] = biological target: Platelet-activating factor receptor (Homo sapiens, UniProt P25105); type: tissue-based; also: in other assays of this panel Not Active means under 50% inhibition at 10 µM
[4] = biological target: T2, 3-hydroxy-3-methylglutaryl-coenzyme A reductase (Homo sapiens, UniProt P04035); parameters: species or system Escherichia coli;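 also: enzyme inhibition assay of HMG-CoA reductase using radiolabeled [14C]HMG-CoA as substrate; in other assays of this panel Not Active means under 50% inhibition at 10 µM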
T2 sequence (P04035 whole entry): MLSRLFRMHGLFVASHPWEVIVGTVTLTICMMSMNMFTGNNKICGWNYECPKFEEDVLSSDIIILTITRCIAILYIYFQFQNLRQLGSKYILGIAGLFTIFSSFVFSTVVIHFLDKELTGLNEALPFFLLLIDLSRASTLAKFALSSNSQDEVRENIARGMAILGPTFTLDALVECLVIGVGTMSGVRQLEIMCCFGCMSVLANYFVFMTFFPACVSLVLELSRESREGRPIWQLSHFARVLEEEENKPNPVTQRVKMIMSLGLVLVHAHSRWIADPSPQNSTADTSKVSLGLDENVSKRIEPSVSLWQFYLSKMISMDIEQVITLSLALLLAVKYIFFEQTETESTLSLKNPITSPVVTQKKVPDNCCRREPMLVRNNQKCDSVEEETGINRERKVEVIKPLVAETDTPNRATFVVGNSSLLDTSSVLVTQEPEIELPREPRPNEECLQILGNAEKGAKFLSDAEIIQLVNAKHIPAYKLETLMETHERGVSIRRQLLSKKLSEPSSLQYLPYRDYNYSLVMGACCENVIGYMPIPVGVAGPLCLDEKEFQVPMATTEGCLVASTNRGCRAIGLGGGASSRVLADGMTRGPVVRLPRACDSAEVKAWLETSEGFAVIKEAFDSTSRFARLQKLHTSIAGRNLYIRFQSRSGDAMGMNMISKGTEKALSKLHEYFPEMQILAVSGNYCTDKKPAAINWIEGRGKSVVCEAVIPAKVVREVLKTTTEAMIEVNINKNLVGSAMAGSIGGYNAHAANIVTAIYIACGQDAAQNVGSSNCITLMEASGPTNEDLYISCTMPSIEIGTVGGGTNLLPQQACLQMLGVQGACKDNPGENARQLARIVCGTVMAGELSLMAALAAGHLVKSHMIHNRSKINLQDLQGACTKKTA

[5] = DRUGMATRIX: Glutamate, NMDA, Phencyclidine radioligand binding (ligand: [3H] TCP); type: cell membranes, Rattus norvegicus, Wistar, Cerebral cortex, Membrane; conditions: Not Active = under 50% inhibition at 10 µM
[6] = DRUGMATRIX: Nicotinic Acetylcholine radioligand binding (ligand: [125I] Epibatidine); type: cell membranes, Membrane; conditions: imr-32; Not Active = under 50% inhibition at 10 µM
[7] = biological target: T3, Nitric oxide synthase, inducible (Mus musculus, UniProt P29477); parameters: species or system Escherichia coli;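 also: inhibition of iNOS enzyme activity measured with L-arginine as substrate; in other assays of this panel Not Active means under 50% inhibition at 10 µM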
T3 sequence (P29477 whole entry): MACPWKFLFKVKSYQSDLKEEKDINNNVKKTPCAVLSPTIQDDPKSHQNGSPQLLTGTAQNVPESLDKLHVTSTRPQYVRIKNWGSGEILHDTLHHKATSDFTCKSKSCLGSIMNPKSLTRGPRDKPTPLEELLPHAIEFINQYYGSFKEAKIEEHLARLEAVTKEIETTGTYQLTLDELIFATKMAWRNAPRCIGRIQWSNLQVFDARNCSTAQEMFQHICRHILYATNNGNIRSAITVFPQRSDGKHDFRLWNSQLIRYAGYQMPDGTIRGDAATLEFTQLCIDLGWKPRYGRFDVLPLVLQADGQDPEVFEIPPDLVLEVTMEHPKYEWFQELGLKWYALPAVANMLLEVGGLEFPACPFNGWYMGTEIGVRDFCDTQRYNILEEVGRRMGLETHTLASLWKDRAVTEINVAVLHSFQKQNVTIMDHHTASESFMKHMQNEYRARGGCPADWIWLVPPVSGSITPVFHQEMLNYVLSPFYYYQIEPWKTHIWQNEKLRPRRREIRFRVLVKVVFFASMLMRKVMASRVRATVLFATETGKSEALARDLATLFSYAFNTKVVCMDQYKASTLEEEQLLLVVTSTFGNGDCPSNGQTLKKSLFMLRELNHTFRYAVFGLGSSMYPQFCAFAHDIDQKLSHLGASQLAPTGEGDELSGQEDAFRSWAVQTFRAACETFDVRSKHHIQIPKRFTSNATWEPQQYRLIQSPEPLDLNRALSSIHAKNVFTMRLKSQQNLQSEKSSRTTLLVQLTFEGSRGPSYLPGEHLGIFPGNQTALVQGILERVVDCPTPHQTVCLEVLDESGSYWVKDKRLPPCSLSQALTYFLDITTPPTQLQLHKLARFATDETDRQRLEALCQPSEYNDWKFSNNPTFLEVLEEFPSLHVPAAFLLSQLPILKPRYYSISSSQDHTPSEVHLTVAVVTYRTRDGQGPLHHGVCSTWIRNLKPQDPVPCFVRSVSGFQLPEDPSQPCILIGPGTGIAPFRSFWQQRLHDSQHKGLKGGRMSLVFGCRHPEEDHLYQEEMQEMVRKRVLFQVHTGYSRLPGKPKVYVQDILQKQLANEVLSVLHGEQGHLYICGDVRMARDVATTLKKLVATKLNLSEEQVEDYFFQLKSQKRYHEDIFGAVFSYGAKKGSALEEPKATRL

Chain of Platelet-activating factor receptor (P25105 whole entry): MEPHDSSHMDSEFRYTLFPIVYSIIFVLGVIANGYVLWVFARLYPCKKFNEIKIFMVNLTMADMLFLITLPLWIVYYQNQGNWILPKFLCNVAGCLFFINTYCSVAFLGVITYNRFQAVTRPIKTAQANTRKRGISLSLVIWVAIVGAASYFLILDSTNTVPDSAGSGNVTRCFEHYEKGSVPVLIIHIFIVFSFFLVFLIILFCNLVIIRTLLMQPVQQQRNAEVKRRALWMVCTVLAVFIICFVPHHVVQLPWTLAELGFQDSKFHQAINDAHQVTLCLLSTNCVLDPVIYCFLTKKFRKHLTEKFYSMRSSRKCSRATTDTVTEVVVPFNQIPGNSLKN

CC[C@H](C)[C@@H](CO[C@@H](Cc1ccccc1)C(=O)N[C@@H](CCS(C)(=O)=O)C(=O)OC(C)C)NC[C@@H](N)CS
Not Active: IC50 [1] | Ki [1] | IC50 [2] | IC50 [3] | IC50 [4] | IC50 [5] | Ki [5] | IC50 [6] | Ki [6] | IC50 [7]

Nc1nc(N)c2nc(-c3ccccc3)c(N)nc2n1
Not Active: IC50 [1] | Ki [1] | IC50 [2] | IC50 [3] | IC50 [4] | IC50 [5] | Ki [5] | IC50 [6] | Ki [6] | IC50 [7]

CCN(CC)C(=S)SSC(=S)N(CC)CC
Not Active: IC50 [1] | Ki [1] | IC50 [2] | IC50 [3] | IC50 [4] | IC50 [5] | Ki [5] | IC50 [6] | Ki [6] | IC50 [7]

CN(C)CCC=C1c2ccccc2COc2ccccc21 [DOXEPIN]
Not Active: IC50 [2] | IC50 [3] | IC50 [4] | IC50 [7]

O=C(c1ccccc1)c1ccc2n1CCC2C(=O)O (stereo unspecified) [KETOROLAC]
Not Active: IC50 [1] | Ki [1] | IC50 [2] | IC50 [3] | IC50 [4] | IC50 [5] | Ki [5] | IC50 [6] | Ki [6] | IC50 [7]

CCOC(=O)C1=C(C)NC(C)=C(C(=O)OCC)C1c1ccccc1/C=C/C(=O)OC(C)(C)C [LACIDIPINE]
Not Active: IC50 [1] | Ki [1] | IC50 [2] | IC50 [3] | IC50 [4] | IC50 [5] | Ki [5] | IC50 [6] | Ki [6] | IC50 [7]

CC(O)C(=O)O (stereo unspecified) [LACTIC ACID]
Not Active: IC50 [1] | Ki [1] | IC50 [2] | IC50 [3] | IC50 [4] | IC50 [5] | Ki [5] | IC50 [6] | Ki [6] | IC50 [7]

CC(C)(C)NC[C@H](O)COc1cccc2c1CCCC2=O [LEVOBUNOLOL]
Not Active: IC50 [1] | Ki [1] | IC50 [2] | IC50 [3] | IC50 [4] | IC50 [5] | Ki [5] | IC50 [6] | Ki [6] | IC50 [7]

CO[C@@H]1[C@@H](OC)[C@H](C)[C@@](O)(CC(=O)O)O[C@H]1[C@H](C)[C@H]1O[C@@]2(CC[C@@](C)([C@H]3CC[C@@](C)([C@@H]4O[C@@H]([C@H]5O[C@](C)(O)[C@H](C)C[C@@H]5C)C[C@@H]4O[C@@H]4C[C@H](OC)[C@@H](OC)[C@H](C)O4)O3)O2)C[C@H](O)[C@H]1C.N [MADURAMICIN]
Not Active: IC50 [1] | Ki [1] | IC50 [2] | IC50 [3] | IC50 [4] | IC50 [5] | Ki [5] | IC50 [6] | Ki [6] | IC50 [7]

OC[C@@H](O)[C@@H](O)[C@H](O)[C@H](O)CO [MANNITOL]
Not Active: IC50 [1] | Ki [1] | IC50 [2] | IC50 [3] | IC50 [4] | IC50 [5] | Ki [5] | IC50 [6] | Ki [6] | IC50 [7]

CNCCCC12CCC(c3ccccc31)c1ccccc12 [MAPROTILINE]
Not Active: IC50 [2] | IC50 [3] | IC50 [4] | IC50 [7]

COC(=O)Nc1nc2ccc(C(=O)c3ccccc3)cc2[nH]1 [MEBENDAZOLE]
Not Active: IC50 [1] | Ki [1] | IC50 [2] | IC50 [3] | IC50 [4] | IC50 [5] | Ki [5] | IC50 [6] | Ki [6] | IC50 [7]

Cc1cc2c(s1)Nc1ccccc1N=C2N1CCN(C)CC1 [OLANZAPINE]
Not Active: IC50 [2] | IC50 [3] | IC50 [4] | IC50 [7]

CCC(C)(C)C(=O)O[C@H]1C[C@@H](C)C=C2C=C[C@H](C)[C@H](CC[C@@H]3C[C@@H](O)CC(=O)O3)[C@H]21 [SIMVASTATIN]
Not Active: IC50 [1] | Ki [1] | IC50 [2] | IC50 [3] | IC50 [5] | Ki [5] | IC50 [6] | Ki [6] | IC50 [7]
